Assay results published in ChEMBL document CHEMBL1201862, “PubChem BioAssay data set” (2004).
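Each compound was tested at five concentrations against cells in 96-well plates for 48 hours. GI50 = concentration required for 50% inhibition of growth.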 Activity calls are given as the source filed them. No stated cut-off is given here; in the data, active = GI50 up to about 1.1 µM and inactive = higher.

Assays:
Assay in all cases: NCI-60 cell line screen, 48 h
DU-145 = system: DU-145
SF-539 = system: SF-539
PC-3 = system: PC-3
HT-29 = system: HT-29
SF-295 = system: SF-295
SK-MEL-5 = system: SK-MEL-5
UACC-257 = system: UACC-257
NCI-H460 = system: NCI-H460
U-251 = system: U-251
HCT-116 = system: HCT-116
ACHN = system: ACHN
OVCAR-8 = system: OVCAR-8
EKVX = system: EKVX
UO-31 = system: UO-31
HCT-15 = system: HCT-15
NCI-H226 = system: NCI-H226
KM12 = system: KM12
SN12C = system: SN12C
UACC-62 = system: UACC-62

| SMILES | GI50 (DU-145) | GI50 (SF-539) | GI50 (PC-3) | GI50 (HT-29) | GI50 (SF-295) | GI50 (SK-MEL-5) | GI50 (UACC-257) | GI50 (NCI-H460) | GI50 (U-251) | GI50 (HCT-116) | GI50 (ACHN) | GI50 (OVCAR-8) | GI50 (EKVX) | GI50 (UO-31) | GI50 (HCT-15) | GI50 (NCI-H226) | GI50 (KM12) | GI50 (SN12C) | GI50 (UACC-62) |
| --- | --- | --- | --- | --- | --- | --- | --- | --- | --- | --- | --- | --- | --- | --- | --- | --- | --- | --- | --- |
| CCCCCCCCCCC(O)C1CCC(C2CCC(C(O)CCCCC(O)CCCCCC(O)CC3=CC(C)OC3=O)O2)O1 (configuration not stated) | 9.91 µM (inactive) | > 25 µM (inactive) | > 25 µM (inactive) | 3.21 µM (inactive) | 19.9 µM (inactive) | 0.258 µM (active) | 2.12 µM (inactive) | 6.93 µM (inactive) | > 25 µM (inactive) | 0.748 µM (active) | > 25 µM (inactive) | 4.51 µM (inactive) | 4.09 µM (inactive) | > 25 µM (inactive) | > 25 µM | 3.82 µM (inactive) | 3.78 µM (inactive) | 9.48 µM (inactive) | 1.2 µM (inactive) |
| Cc1cc(O)c(C(C)C)cc1/N=C/c1ccccc1O | 5.53 µM (inactive) | 30.8 µM (inactive) | 5.08 µM (inactive) | 24.2 µM (inactive) | 13.1 µM (inactive) | 6.08 µM (inactive) | 9.35 µM (inactive) | 5.3 µM (inactive) | 3.55 µM (inactive) | 4 µM (inactive) | 11.5 µM (inactive) | 1.8 µM (inactive) | 7.87 µM (inactive) | 13.2 µM (inactive) | 3.97 µM | 5.52 µM (inactive) | 3.76 µM (inactive) | 4.54 µM (inactive) | 8.91 µM (inactive) |
| COc1cccc(Nc2nc(-c3cccs3)nc3cc(OC)c(OC)cc23)c1 | 55.6 µM (inactive) | 20.9 µM (inactive) | 27.9 µM (inactive) | 24.8 µM (inactive) | 23.4 µM (inactive) | 25.4 µM (inactive) | 36.8 µM (inactive) | 28.8 µM (inactive) | 23.8 µM (inactive) | 26.4 µM (inactive) | 21.6 µM (inactive) | 23.9 µM (inactive) | 35.8 µM (inactive) | 51.8 µM (inactive) | 26.6 µM | 37.6 µM (inactive) | 30.4 µM (inactive) | 21.3 µM (inactive) | 19.1 µM (inactive) |
| C=C1C2CCC3C4(C)CCCC(C)(C(=O)O)C4CCC3(C2)C1OC(=O)/C(C)=C/C (configuration not stated) | 42.3 µM (inactive) | 27.5 µM (inactive) | 31.3 µM (inactive) | 33.4 µM (inactive) | 20.3 µM (inactive) | 27.4 µM (inactive) | 39.7 µM (inactive) | 34.6 µM (inactive) | 30.7 µM (inactive) | 38.5 µM (inactive) | 36.1 µM (inactive) | 32.7 µM (inactive) | 35.1 µM (inactive) | 21 µM (inactive) | 22.9 µM | 36 µM (inactive) | 17.3 µM (inactive) | 23 µM (inactive) | 25.6 µM (inactive) |
| COc1cc2c(cc1OC)[C@H]1C(=O)c3cc4c(cc3[C@H]1N(C)C2=O)OCO4 | 8.43 µM (inactive) | 3.94 µM (inactive) | 9.04 µM (inactive) | 5.27 µM (inactive) | 2.35 µM (inactive) | 1.96 µM (inactive) | 6.32 µM (inactive) | 0.955 µM (active) | 1.03 µM (active) | 2.22 µM (inactive) | 0.682 µM (active) | 30.4 µM (inactive) | > 100 µM (inactive) | 1.42 µM (inactive) | 14.7 µM | 1.81 µM (inactive) | 36.6 µM (inactive) | 2.83 µM (inactive) | 0.879 µM (active) |
| CSc1ccn(C2CC(F)C(CO)O2)c(=O)n1 (configuration not stated) | > 100 µM (inactive) | > 100 µM (inactive) | > 100 µM (inactive) | > 100 µM (inactive) | > 100 µM (inactive) | > 100 µM (inactive) | > 100 µM (inactive) | > 100 µM (inactive) | > 100 µM (inactive) | > 100 µM (inactive) | > 100 µM (inactive) | > 100 µM (inactive) | > 100 µM (inactive) | > 100 µM (inactive) | > 100 µM | > 100 µM (inactive) | > 100 µM (inactive) | > 100 µM (inactive) | > 100 µM (inactive) |
| COc1ccc(Cc2c(-c3ccc(C)cc3)n[nH]c(=O)c2C2C(=O)N(c3ccccc3)N=C2c2ccccc2)cc1 (configuration not stated) | 43.7 µM (inactive) | 25.1 µM (inactive) | 26.7 µM (inactive) | 31.7 µM (inactive) | 24.3 µM (inactive) | 20.7 µM (inactive) | 29.3 µM (inactive) | 30.5 µM (inactive) | 34.8 µM (inactive) | 21.8 µM (inactive) | 30.9 µM (inactive) | 30.3 µM (inactive) | 26.8 µM (inactive) | 39.7 µM (inactive) | 42.9 µM | 29.4 µM (inactive) | 22.3 µM (inactive) | 30.9 µM (inactive) | 20 µM (inactive) |
| Cc1ccc2nc3ccccc3c(C3C4C(=O)N(c5ccc(Br)cc5Cl)C(=O)C4ON3C(C(N)=O)c3ccccc3)c2c1 (configuration not stated) | > 25 µM (inactive) | 11.8 µM (inactive) | > 25 µM (inactive) | 11.2 µM (inactive) | > 25 µM (inactive) | 19.1 µM (inactive) | 15.6 µM (inactive) | > 25 µM (inactive) | > 25 µM (inactive) | 13.7 µM (inactive) | 6.73 µM (inactive) | > 25 µM (inactive) | 6.56 µM (inactive) | 7.41 µM (inactive) | 5.77 µM | 17.2 µM (inactive) | > 25 µM (inactive) | 5.47 µM (inactive) | 7.93 µM (inactive) |
